Assay results published in ChEMBL document CHEMBL3885881, “DrugMatrix”.

Species: Rattus norvegicus
Test: DrugMatrix - Regimen: Daily Repeat
Assay type: toxicity, organism-based, Sprague-Dawley
Set-up: regimen Daily Repeat, gender Male, age 6-8 weeks
Details: in vivo, po, route oral GAVAGE, vehicle .5 % CMC; for ABSOLUTE BASOPHIL / ABSOLUTE EOSINOPHIL / ABSOLUTE LYMPHOCYTE / ABSOLUTE MONOCYTE / ABSOLUTE SEGMENTED NEUTROPHIL / BASOPHIL / EOSINOPHIL / ERYTHROCYTE COUNT / HEMATOCRIT / HEMOGLOBIN / LEUKOCYTE COUNT / LYMPHOCYTE / MEAN CORPUSCULAR HEMOGLOBIN / MEAN CORPUSCULAR HEMOGLOBIN CONCENTRATION / MEAN CORPUSCULAR VOLUME / MONOCYTE / NEUTROPHIL / NUCLEATED RED BLOOD CELLS / PLATELET COUNT: tissue Blood; for ALANINE AMINOTRANSFERASE / ALBUMIN / ALKALINE PHOSPHATASE / ASPARTATE AMINOTRANSFERASE / BLOOD UREA NITROGEN / CARBON DIOXIDE / CHLORIDE / CHOLESTEROL / CREATINE PHOSPHOKINASE / CREATININE / GLUCOSE / LACTATE DEHYDROGENASE / LIPASE / PHOSPHORUS / POTASSIUM / SODIUM / TOTAL BILIRUBIN / TOTAL PROTEIN / URIC ACID: tissue Plasma
[1] = 0 mg/kg, 72 h, dose level Control, time 3 day
[2] = 0 mg/kg, 120 h, dose level Control, time 5 day
[3] = 55 mg/kg, 72 h, dose level Low, time 3 day

In the case of `CCN1CCCC1CNC(=O)c1cc(S(N)(=O)=O)ccc1OC` (centres undefined) [SULPIRIDE], the “ABSOLUTE BASOPHIL” value [1] is reported as 0 CELLS/uL, the “ABSOLUTE EOSINOPHIL” value [1] is reported as 0 CELLS/uL and the “ABSOLUTE LYMPHOCYTE” value [1] is reported as 12269.67 CELLS/uL. The “ABSOLUTE MONOCYTE” value [1] was 160.33 CELLS/uL, the “ABSOLUTE SEGMENTED NEUTROPHIL” value [1] was 970 CELLS/uL and the BASOPHIL [1] was 0%. For the same molecule, the EOSINOPHIL [1] was 0%, the “ERYTHROCYTE COUNT” value [1] was 5.76 x10E6/uL and the HEMATOCRIT [1] was 36.57%. The HEMOGLOBIN [1] was 14.22 G/DL, the “LEUKOCYTE COUNT” value [1] was 13.4 x10E3/uL and the LYMPHOCYTE [1] was 91.67%. The “MEAN CORPUSCULAR HEMOGLOBIN” value [1] was 24.67 pg, the “MEAN CORPUSCULAR HEMOGLOBIN CONCENTRATION” value [1] was 38.85 G/DL and the “MEAN CORPUSCULAR VOLUME” value [1] was 63.52 fL. The MONOCYTE [1] was 1.17%, the NEUTROPHIL [1] was 7.17% and the “NUCLEATED RED BLOOD CELLS” value [1] was 0.33 /100WBC. For the same molecule, the “PLATELET COUNT” value [1] was 1250.83 x10E3/uL, the “ALANINE AMINOTRANSFERASE” value [1] was 49.17 u/L and the ALBUMIN [1] was 4.33 G/DL. The “ALKALINE PHOSPHATASE” value [1] was 378.5 u/L, the “ASPARTATE AMINOTRANSFERASE” value [1] was 82.17 u/L and the “BLOOD UREA NITROGEN” value [1] was 15 mg/dL. For the same molecule, the “CARBON DIOXIDE” value [1] was 34.33 mmol/L, the CHLORIDE [1] was 99.17 MEQ/L and the CHOLESTEROL [1] was 71.17 mg/dL. For the same molecule, the “CREATINE PHOSPHOKINASE” value [1] was 258.67 u/L, the CREATININE [1] was 0.18 mg/dL and the GLUCOSE [1] was 142.67 mg/dL. For the same molecule, the “LACTATE DEHYDROGENASE” value [1] was 154.33 u/L, the LIPASE [1] was 9 u/L and the PHOSPHORUS [1] was 11.67 mg/dL. For the same molecule, the POTASSIUM [1] was 7.13 MEQ/L, the SODIUM [1] was 142.22 MEQ/L and the “TOTAL BILIRUBIN” value [1] was 0.18 mg/dL. The “TOTAL PROTEIN” value [1] was 5.77 G/DL, the “URIC ACID” value [1] was 1.55 mg/dL and the “ABSOLUTE BASOPHIL” value [2] was 0 CELLS/uL. For the same molecule, the “ABSOLUTE EOSINOPHIL” value [2] was 23.33 CELLS/uL, the “ABSOLUTE LYMPHOCYTE” value [2] was 14943.67 CELLS/uL and the “ABSOLUTE MONOCYTE” value [2] was 32 CELLS/uL. For the same molecule, the “ABSOLUTE SEGMENTED NEUTROPHIL” value [2] was 1084.33 CELLS/uL, the BASOPHIL [2] was 0% and the EOSINOPHIL [2] was 0.17%. The “ERYTHROCYTE COUNT” value [2] was 5.71 x10E6/uL, the HEMATOCRIT [2] was 35.28% and the HEMOGLOBIN [2] was 14.27 G/DL. For the same molecule, the “LEUKOCYTE COUNT” value [2] was 16.08 x10E3/uL, the LYMPHOCYTE [2] was 93% and the “MEAN CORPUSCULAR HEMOGLOBIN” value [2] was 25.02 pg. For the same molecule, the “MEAN CORPUSCULAR HEMOGLOBIN CONCENTRATION” value [2] was 40.43 G/DL, the “MEAN CORPUSCULAR VOLUME” value [2] was 61.82 fL and the MONOCYTE [2] was 0.17%. For the same molecule, the NEUTROPHIL [2] was 6.67%, the “NUCLEATED RED BLOOD CELLS” value [2] was 0.33 /100WBC and the “PLATELET COUNT” value [2] was 1274 x10E3/uL. The “ALANINE AMINOTRANSFERASE” value [2] was 54.17 u/L, the ALBUMIN [2] was 4.22 G/DL and the “ALKALINE PHOSPHATASE” value [2] was 373.17 u/L. The “ASPARTATE AMINOTRANSFERASE” value [2] was 81.83 u/L, the “BLOOD UREA NITROGEN” value [2] was 16.67 mg/dL and the “CARBON DIOXIDE” value [2] was 30.33 mmol/L. The CHLORIDE [2] was 99 MEQ/L, the CHOLESTEROL [2] was 71 mg/dL and the “CREATINE PHOSPHOKINASE” value [2] was 273.5 u/L. The CREATININE [2] was 0.22 mg/dL, the GLUCOSE [2] was 141.83 mg/dL and the “LACTATE DEHYDROGENASE” value [2] was 153.67 u/L. It also gave an LIPASE [2] of 10.33 u/L, a PHOSPHORUS [2] of 11.38 mg/dL and a POTASSIUM [2] of 7.08 MEQ/L. The SODIUM [2] was 142.75 MEQ/L, the “TOTAL BILIRUBIN” value [2] was 0.18 mg/dL and the “TOTAL PROTEIN” value [2] was 6.1 G/DL. For the same molecule, the “URIC ACID” value [2] was 1.67 mg/dL, the “ABSOLUTE BASOPHIL” value [3] was 0 CELLS/uL and the “ABSOLUTE EOSINOPHIL” value [3] was 0 CELLS/uL. For the same molecule, the “ABSOLUTE LYMPHOCYTE” value [3] was 13264 CELLS/uL, the “ABSOLUTE MONOCYTE” value [3] was 100 CELLS/uL and the “ABSOLUTE SEGMENTED NEUTROPHIL” value [3] was 869.33 CELLS/uL. The BASOPHIL [3] was 0%, the EOSINOPHIL [3] was 0% and the “ERYTHROCYTE COUNT” value [3] was 5.78 x10E6/uL. The HEMATOCRIT [3] was 37.4%, the HEMOGLOBIN [3] was 14.93 G/DL and the “LEUKOCYTE COUNT” value [3] was 14.23 x10E3/uL. For the same molecule, the LYMPHOCYTE [3] was 93.33%, the “MEAN CORPUSCULAR HEMOGLOBIN” value [3] was 25.87 pg and the “MEAN CORPUSCULAR HEMOGLOBIN CONCENTRATION” value [3] was 39.97 G/DL. The “MEAN CORPUSCULAR VOLUME” value [3] was 64.7 fL, the MONOCYTE [3] was 0.67% and the NEUTROPHIL [3] was 6%. The “NUCLEATED RED BLOOD CELLS” value [3] was 0 /100WBC, the “PLATELET COUNT” value [3] was 1265.67 x10E3/uL and the “ALANINE AMINOTRANSFERASE” value [3] was 40.33 u/L. For the same molecule, the ALBUMIN [3] was 4.83 G/DL, the “ALKALINE PHOSPHATASE” value [3] was 335 u/L and the “ASPARTATE AMINOTRANSFERASE” value [3] was 84.67 u/L. The “BLOOD UREA NITROGEN” value [3] was 20.33 mg/dL, the “CARBON DIOXIDE” value [3] was 26 mmol/L and the CHLORIDE [3] was 104 MEQ/L. The CHOLESTEROL [3] was 78.67 mg/dL, the “CREATINE PHOSPHOKINASE” value [3] was 305 u/L and the CREATININE [3] was 0.26 mg/dL. The GLUCOSE [3] was 178.33 mg/dL, the “LACTATE DEHYDROGENASE” value [3] was 183 u/L and the LIPASE [3] was 11.67 u/L. It also gave a PHOSPHORUS [3] of 15 mg/dL, a POTASSIUM [3] of 6.9 MEQ/L and an SODIUM [3] of 149.67 MEQ/L. The “TOTAL BILIRUBIN” value [3] was 0.13 mg/dL, the “TOTAL PROTEIN” value [3] was 6.7 G/DL and the “URIC ACID” value [3] was 2.27 mg/dL.
